Experimental data as given in US4189604A, “Bestatin” (Zaidan Hojin Biseibutsu Kagaku Kenkyu Kai, priority 1975, dated 1980).
≈ marks a conversion by molar mass, not a printed value.

Tests used:
[1] = Contraceptive property: antifertility of Bestatin; type: in vivo, ICR JCL female mice
Procedure: (C) Contraceptive property:
Antifertility of Bestatin:
Immediately after subcutaneously administering Bestatin (10 mg./kg.) to ICR JCL female mice at the age of puberty, these mice were placed with male mice of similar line. Female mice which had copulated were killed two days after formulation of vaginal plug and the ova were collected from their uterine tubes so as to examine whether they had been fertilized or not. The fertilized ova were at 8-16 cell period.

aminopeptidase B = biological target: T1, aminopeptidase B (Rattus norvegicus, UniProt O09175); assay: Inhibitory activity against aminopeptidase B; type: biochemical
T1 construct: aminopeptidase B solution which is prepared by Sephadex 100 chromatography as described by Hopusu et al; from tissue
T1 sequence (O09175 1-650): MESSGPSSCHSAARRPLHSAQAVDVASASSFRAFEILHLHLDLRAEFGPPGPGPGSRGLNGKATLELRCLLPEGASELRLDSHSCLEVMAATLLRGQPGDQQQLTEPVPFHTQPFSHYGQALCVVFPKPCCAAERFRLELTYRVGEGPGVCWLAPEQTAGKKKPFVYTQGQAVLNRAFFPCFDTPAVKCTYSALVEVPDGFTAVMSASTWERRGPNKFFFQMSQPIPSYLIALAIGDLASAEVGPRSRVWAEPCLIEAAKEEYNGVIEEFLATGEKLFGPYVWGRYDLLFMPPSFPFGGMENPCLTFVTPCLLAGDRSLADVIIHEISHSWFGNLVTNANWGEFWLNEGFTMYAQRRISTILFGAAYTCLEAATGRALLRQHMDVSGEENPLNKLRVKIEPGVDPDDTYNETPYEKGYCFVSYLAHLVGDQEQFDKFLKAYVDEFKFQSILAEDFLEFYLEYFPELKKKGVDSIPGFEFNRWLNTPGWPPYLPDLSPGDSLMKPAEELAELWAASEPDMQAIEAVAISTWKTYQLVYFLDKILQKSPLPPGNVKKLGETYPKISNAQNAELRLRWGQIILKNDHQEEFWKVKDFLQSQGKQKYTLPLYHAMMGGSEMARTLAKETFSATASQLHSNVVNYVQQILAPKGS
Procedure: (A) Inhibitory activity against aminopeptidase B Testing method: The method described by […] in Archives of Biochemistry and Biophysics 114, 557, (1966) was modfied. To the mixture of 0.3 ml. of 1 mM arginine β-naphthylamide and 1.0 Ml. of 0.1 M Tris hydrochloride buffer (pH 7.0), 0.7 Ml. of distilled water with or without a test material is added and warmed at 37° C. for 3 minutes. The reaction is started by addition of 0.2 ml. of aminopeptidase B solution which is prepared by Sephadex 100 chromatography as described by Hopusu et al. […] Fifteen minutes at room temperature thereafter, absorbance (a) at 530 nm is measured by spectrophotometer. […] The inhibition percent is calculated as follows: (b-a)/b×100.

[2] = system: plaque forming cells in the spleen; assay: Effect on humoral antibody formation to Sheep Red Blood Cell (SRBC) in mice (JERNE's hemolytic plaque technique); type: in vivo, Mice (dd/y female); conditions: for Antibody Forming Cells Number / Antibody Forming Cells Treated Group / Non-treated Group: intraperitoneal, four days
Procedure: The compound of Example 28 was also tested for its humoral antibody formation to find its efficacy as an immunizing cancer inhibitor. […] For the humoral antibody formation of Bestatin per se see J. Antibiotics, 29(8), 857-859 (August, 1976).
The effect of (2RS,3RS)-3-amino-2-hydroxy-4-hydroxyphenylbutanoyl-(S)-leucine on humoral antibody formation to Sheep Red Blood Cell (SRBC) in mice was studied as follows.
Mice (dd/y female) were immunized by intravenous injection of 10^8 SRBC. Intraperitoneal injection of (2RS,3RS)-3-amino-2-hydroxy-4-hydroxyphenylbutanoyl-(S)-leucine was made soon afterwards.
Four days thereafter the number of plaque forming cells in the spleen were enumerated by JERNE's hemolytic plaque technique [Jerne, N. K.; A. A. Nordin & C. Henry: "The Agar Plaque Technique for Recognizing Antibody-producing Cells" in cell-bound antibodies (Wistar Institute Press, Philadelphia, 1963), pp. 109-122].

[3] = Organ distribution of Bleomycin B2 in the presence of Bestatin; type: in vivo, ICR male mice; conditions: 1 hour, average of 3
Procedure: (B) Organ distribution of Bleomycin in the presence of Bestatin:
100 mg./kg. of Bleomycin B2 was subcutaneously administered to each of three ICR male mice (4 weeks of age) and 100 mg./kg. of Bleomycin B2 and 100 mg./kg. of Bestatin were subcutaneously administered simultaneously to each of three similar mice. These 6 mice were killed one hour after administration and the quantity of Bleomycin B2 remaining in the serum and organs was determined by a thin layer disc method employing Bacillus subtilis PCI219 as the test microorganism. The results are as listed in Table 2, wherein the numerals show average values in mcg./ml.

[4] = BLM 100 mg/kg + BST (Bestatin) 100 mg/kg s.c. simultaneously

CC(C)C[C@H](NC(=O)[C@@H](O)[C@H](N)Cc1ccccc1)C(=O)O [No. 1, [(2S,3R)-3-amino-2-hydroxy-4-phenylbutanoyl]-L-leucine]
antifertility ([1]; 10 mg./kg. s.c.): has an antifertility property
Fertilized ovum (number) ([1]; 10 mg./kg. s.c., Female No. 1): 4
Fertilized ovum (percent) ([1]; 10 mg./kg. s.c., Female No. 1): 40%
Non-fertilized ovum (number) ([1]; 10 mg./kg. s.c., Female No. 1): 6
Non-fertilized ovum (percent) ([1]; 10 mg./kg. s.c., Female No. 1): 60%
Number of collected ovum ([1]; 10 mg./kg. s.c., Female No. 1): 10
Number of corpus luteum ([1]; 10 mg./kg. s.c., Female No. 1): 10
Fertilized ovum (number) ([1]; 10 mg./kg. s.c., Female No. 2): 6
Fertilized ovum (percent) ([1]; 10 mg./kg. s.c., Female No. 2): 31.6%
Non-fertilized ovum (number) ([1]; 10 mg./kg. s.c., Female No. 2): 13
Non-fertilized ovum (percent) ([1]; 10 mg./kg. s.c., Female No. 2): 68.4%
Number of collected ovum ([1]; 10 mg./kg. s.c., Female No. 2): 19
Number of corpus luteum ([1]; 10 mg./kg. s.c., Female No. 2): 19
Fertilized ovum (number) ([1]; 10 mg./kg. s.c., Total N=2): 10
Fertilized ovum (percent) ([1]; 10 mg./kg. s.c., Total N=2): 34.5%
Non-fertilized ovum (number) ([1]; 10 mg./kg. s.c., Total N=2): 19
Non-fertilized ovum (percent) ([1]; 10 mg./kg. s.c., Total N=2): 65.5%
Number of collected ovum ([1]; 10 mg./kg. s.c., Total N=2): 29
Number of corpus luteum ([1]; 10 mg./kg. s.c., Total N=2): 29
fertility of the ova collected ([1]; copulated 4-16 hours after administration, control 70%): 34.5%
ID50 (aminopeptidase B; Biological Testing table after Example 29): 0.10 µg/mL (≈ 0.324 µM)
ID50 (aminopeptidase B; pH 7.0, 37° C., 30 minutes, Table 1): 0.10 µg/mL (≈ 0.324 µM)
number of antibody forming cells compared with non-treated group ([2]; 10 mcg., in words): nearly equal to that of non-treated group
Antibody Forming Cells Number ([2]; dose 1 mg.): 190,000±7,100
Antibody Forming Cells Treated Group / Non-treated Group ([2]; dose 1 mg.): 1.52
Antibody Forming Cells Number ([2]; dose 10 mcg.): 136,250±6,500
Antibody Forming Cells Treated Group / Non-treated Group ([2]; dose 10 mcg.): 1.09

Bleomycin B2 [BLM]
Bleomycin B2 remaining in Brain [3, 4]: 2.4 µg/mL
Bleomycin B2 remaining in Kidney [3, 4]: 84.0 µg/mL
Bleomycin B2 remaining in Liver [3, 4]: 0 µg/mL
Bleomycin B2 remaining in Lung [3, 4]: 21.2 µg/mL
Bleomycin B2 remaining in Serum [3, 4]: 140 µg/mL
Bleomycin B2 remaining in Skin [3, 4]: 42.0 µg/mL
Bleomycin B2 remaining in Spleen [3, 4]: 5.8 µg/mL
Bleomycin B2 remaining in Stomach [3, 4]: 2.5 µg/mL
Bleomycin B2 remaining in Brain ([3]; BLM 100 mg/kg s.c. alone): 0 µg/mL
Bleomycin B2 remaining in Kidney ([3]; BLM 100 mg/kg s.c. alone): 68.0 µg/mL
Bleomycin B2 remaining in Liver ([3]; BLM 100 mg/kg s.c. alone): 0 µg/mL
Bleomycin B2 remaining in Lung ([3]; BLM 100 mg/kg s.c. alone): 11.2 µg/mL
Bleomycin B2 remaining in Serum ([3]; BLM 100 mg/kg s.c. alone): 110 µg/mL
Bleomycin B2 remaining in Skin ([3]; BLM 100 mg/kg s.c. alone): 4.5 µg/mL
Bleomycin B2 remaining in Spleen ([3]; BLM 100 mg/kg s.c. alone): 4.0 µg/mL
Bleomycin B2 remaining in Stomach ([3]; BLM 100 mg/kg s.c. alone): 1.6 µg/mL
